This is an account of results in patent publication US10308652B2, “Tricyclic heterocyclic compounds useful as inhibitors of TNF” (BRISTOL-MYERS SQUIBB COMPANY, priority 2015, dated 2019).

The target of the experiment is TNFα (Homo sapiens (Human), UniProt P01375). Put plainly: TNF induced HEK-Blue assay. The following applies: TNFα 0.5 ng/ml; HEK-Blue-CD40L cells, NF-κB-driven secreted alkaline phosphatase reporter; 18 h. It is filed as cell-based. Here is the method:
TNF or CD40L-induced HEK-Blue Assay Test compounds serially diluted in DMSO were plated in an assay plate (Labcyte, Cat. #LP-0200) at final concentrations ranging from 0.004 μM to 25μM. TNFα (final concentration 0.5 ng/ml) or CD4OL (final concentration 30 ng/ml) in assay buffer [DMEM, 4.5 g/l glucose (Gibco, Cat. 21063-029), 10% FBS (Sigma, F4135), 1% Penicillin-Streptomycin (Gibco, Cat. 15140-122), 1% Anti-Anti (Gibco, Cat. 15240-112) and 2 mM L-glutamine (Gibco, Cat. 25030-081)] was then added to the assay plate. After a 30 minute pre-incubation at 37° C. and 5% CO2, HEK-Blue-CD40L cells (InvivoGen, Cat. Code hkb-cd40) containing a NF-κB-driven secreted alkaline phosphatase reporter gene were seeded into the assay plate at a density of 20,000 cells per well. This plate was then incubated for 18 h at 37° C. and 5% CO2. Secreted alkaline phosphatase expression was measured using QUANTI-Blue (InvivoGen, Cat. Code rep-qb1) according to manufacturer's specifications and the assay plate was read on a PerkinElmer Envision at 620 nm. Inhibition data for the test compound over a range of concentrations was plotted as percentage inhibition of the test compound (100%=maximum inhibition). IC50 values were determined after correcting for background [(sample read−mean of low control)/(mean of high control−mean of low control)] where by the low control is DMSO without stimulation and high control is DMSO with stimulation. The IC50 is defined as the concentration of test compound which produces 50% inhibition and was quantified using the 4 parameter logistic equation to fit the data.

Chain of TNFα (P01375 77-233): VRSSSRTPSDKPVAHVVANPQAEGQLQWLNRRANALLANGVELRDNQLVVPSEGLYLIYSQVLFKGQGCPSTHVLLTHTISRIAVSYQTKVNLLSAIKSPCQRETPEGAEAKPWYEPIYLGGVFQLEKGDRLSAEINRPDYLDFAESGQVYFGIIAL

Broadly, the IC50 is the point on the concentration scale where inhibition reaches its midpoint. The low end stands for greater potency, the high end for weaker potency. `COc1ccc(-c2ccc3nc4c(n3n2)C(c2ccccc2OC(F)F)NCC4)cn1` (racemic) [Example 1, (+/−)-9-(2-(Difluoromethoxy)phenyl)-2-(6-methoxypyridin-3-yl)-6,7,8,9-tetrahydropyrido[4′,3′:4,5]imidazo[1,2-b]pyridazine] displayed a half-inhibitory concentration (IC50) of less than 1 µM.

Compound `CC(C)(O)c1ccc(-c2ccc3nc4c(n3n2)C(c2ccccc2OC(F)F)NCC4)cc1` (racemic) [Example 2, (+/−)-2-(4-(9-(2-(Difluoromethoxy)phenyl)-6,7,8,9-tetrahydropyrido [4′,3′:4,5]imidazo[1,2-b]pyridazin-2-yl)phenyl)propan-2-ol] returned an IC50 of less than 1 µM.

In turn, `CC(C)(O)c1ncc(-c2ccc3nc4c(n3n2)C(c2ccccc2OC(F)F)NCC4)cn1` (racemic) [Example 3, (+/−)-2-(5-(9-(2-(Difluoromethoxy)phenyl)-6,7,8,9-tetrahydropyrido[4′,3′:4,5]imidazo[1,2-b]pyridazin-2-yl)pyrimidin-2-yl)propan-2-ol] returned an IC50 of 1 to 10 µM.

`CC(C)(O)c1ccc(-c2ccc3nc4c(n3n2)[C@H](c2ccccc2OC(F)F)NC[C@@H]4O)cc1` (racemic) [Example 4, (+/−)-cis-9-(2-(difluoromethoxy)phenyl)-2-(4-(2-hydroxypropan-2-yl)phenyl)-6,7,8,9-tetrahydropyrido[4′,3′:4,5]imidazo[1,2-b]pyridazin-6-ol] displayed an IC50 of less than 1 µM.

For `CC(C)(O)c1ccc(-c2ccc3nc4c(n3n2)[C@H](c2ccccc2OC(F)F)NC[C@@H]4F)cc1` (racemic) [Example 8, (+/−)-Cis-2-(4-((6S,9S)-9-(2-(difluoromethoxy)phenyl)-6-fluoro-6,7,8,9-tetrahydropyrido [4′,3′:4,5]imidazo[1,2-b]pyridazin-2-yl)phenyl)propan-2-ol], the IC50 is less than 1 µM.

With `CC(C)(O)c1ccc(-c2ccc3nc4c(n3n2)[C@H](c2ccccc2OC(F)F)NC[C@H]4F)cc1` (racemic) [Example 9, (+/−)-trans-2-(4-(9-(2-(difluoromethoxy)phenyl)-6-fluoro-6,7,8,9-tetrahydropyrido[4′,3′:4,5]imidazo[1,2-b]pyridazin-2-yl)phenyl)propan-2-ol], the IC50 lay within 1 to 10 µM.

For the compound `CC(C)(O)c1ncc(-c2ccc3nc4c(n3n2)[C@@H](c2ccccc2OC(F)F)NC[C@H]4F)cn1` (racemic) [Example 10, (+/−)-cis-2-(5-(9-(2-(difluoromethoxy)phenyl)-6-fluoro-6,7,8,9-tetrahydropyrido [4′,3′:4,5]imidazo[1,2-b]pyridazin-2-yl)pyrimidin-2-yl)propan-2-ol], the IC50 lay within 1 to 10 µM.

With `COc1ccc(-c2ccc3nc4c(n3n2)[C@@H](c2ccccc2OC(F)F)NC[C@H]4F)cn1` (racemic) [Example 11, (+/−)-cis-9-(2-(difluoromethoxy)phenyl)-6-fluoro-2-(6-methoxypyridin-3-yl)-6,7,8,9-tetrahydropyrido [4′,3′:4,5]imidazo[1,2-b]pyridazine], the half-maximal inhibitory concentration (IC50) fell in the range of 10 to 25 µM.

`COc1cc(F)ccc1[C@@H]1NC[C@@H](O)c2nc3ccc(-c4ccc(C(C)(C)O)cc4)nn3c21` (racemic) [Example 23, (+/−)-trans-9-(4-fluoro-2-methoxyphenyl)-2-(4-(2-hydroxypropan-2-yl)phenyl)-6,7,8,9-tetrahydropyrido[4′,3′:4,5]imidazo[1,2-b]pyridazin-6-ol] yielded a half-inhibitory concentration (IC50) of 1 to 10 µM.

`CCc1ccccc1[C@@H]1NC[C@@H](O)c2nc3ccc(-c4ccc(C(C)(C)O)cc4)nn3c21` (racemic) [Example 24, (+/−)-trans-9-(2-ethylphenyl)-2-(4-(2-hydroxypropan-2-yl)phenyl)-6,7,8,9-tetrahydropyrido[4′,3′:4,5]imidazo[1,2-b]pyridazin-6-ol]: the IC50 was less than 1 µM.

`CCc1ccccc1[C@H]1NC[C@@H](O)c2nc3ccc(-c4ccc(C(C)(C)O)cc4)nn3c21` (racemic) [Example 25, (+/−)-cis-9-(2-ethylphenyl)-2-(4-(2-hydroxypropan-2-yl)phenyl)-6,7,8,9-tetrahydropyrido[4′,3′:4,5]imidazo[1,2-b]pyridazin-6-ol] had an IC50 of 1 to 10 µM.

`CC(C)COc1ccc(-c2ccc3nc4c(n3n2)[C@@H](c2ccccc2OC(F)F)NC[C@H]4O)cc1` (racemic) [Example 27, (+/−)-cis-9-(2-(difluoromethoxy)phenyl)-2-(4-isobutoxyphenyl)-6,7,8,9-tetrahydropyrido[4′,3′:4,5]imidazo[1,2-b]pyridazin-6-ol]: the concentration for half-maximal inhibition (IC50) was in the range of 1 to 10 µM.

`CC(C)(O)c1ccc(-c2ccc3nc4c(n3n2)[C@H](c2cc(Cl)ccc2OC(F)F)NC[C@H]4O)cc1` (racemic) [Example 28, (+/−)-trans-9-(5-chloro-2-(difluoromethoxy)phenyl)-2-(4-(2-hydroxypropan-2-yl)phenyl)-6,7,8,9-tetrahydropyrido[4′,3′:4,5]imidazo[1,2-b]pyridazin-6-ol] returned a 50% inhibitory concentration (IC50) of 1 to 10 µM.

With `CC(C)(O)COc1ccc(-c2ccc3nc4c(n3n2)[C@@H](c2ccccc2OC(F)F)NC[C@H]4O)cc1` (racemic) [Example 29, (+/−)-cis-9-(2-(difluoromethoxy)phenyl)-2-(4-(2-hydroxy-2-methylpropoxy)phenyl)-6,7,8,9-tetrahydropyrido[4′,3′:4,5]imidazo[1,2-b]pyridazin-6-ol], the IC50 lay within 1 to 10 µM.

`COc1cc(-c2ccc3nc4c(n3n2)[C@@H](c2ccccc2OC(F)F)NC[C@H]4O)ccc1OCC(C)(C)O` (racemic) [Example 30, (+/−)-cis-9-(2-(difluoromethoxy)phenyl)-2-(4-(2-hydroxy-2-methylpropoxy)-3-methoxyphenyl)-6,7,8,9-tetrahydropyrido[4′,3′:4,5]imidazo[1,2-b]pyridazin-6-ol]: the IC50 is 1 to 10 µM.

`CCOc1ccc(-c2ccc3nc4c(n3n2)[C@@H](c2ccccc2OC(F)F)NC[C@H]4O)cc1` (racemic) [Example 31, (+/−)-cis-9-(2-(difluoromethoxy)phenyl)-2-(4-ethoxyphenyl)-6,7,8,9-tetrahydropyrido[4′,3′:4,5]imidazo [1,2-b]pyridazin-6-ol] registered an IC50 of 1 to 10 µM.

Compound `CC(C)Oc1ccc(-c2ccc3nc4c(n3n2)[C@@H](c2ccccc2OC(F)F)NC[C@H]4O)cc1` (racemic) [Example 32, (+/−)-cis-9-(2-(difluoromethoxy)phenyl)-2-(4-isopropoxyphenyl)-6,7,8,9-tetrahydropyrido[4′,3′:4,5]imidazo[1,2-b]pyridazin-6-ol] displayed a 50% inhibitory concentration (IC50) of 1 to 10 µM.

Take `CCCOc1ccc(-c2ccc3nc4c(n3n2)[C@@H](c2ccccc2OC(F)F)NC[C@H]4O)cc1` (racemic) [Example 33, (+/−)-cis-9-(2-(difluoromethoxy)phenyl)-2-(4-propoxyphenyl)-6,7,8,9-tetrahydropyrido [4′,3′:4,5]imidazo[1,2-b]pyridazin-6-ol]: the 50% inhibitory concentration (IC50) is less than 1 µM.

With `COCCOc1ccc(-c2ccc3nc4c(n3n2)[C@@H](c2ccccc2OC(F)F)NC[C@H]4O)cc1` (racemic) [Example 34, (+/−)-cis-9-(2-(difluoromethoxy)phenyl)-2-(4-(2-methoxyethoxy)phenyl)-6,7,8,9-tetrahydropyrido[4′,3′:4,5]imidazo[1,2-b]pyridazin-6-ol], the 50% inhibitory concentration (IC50) was 1 to 10 µM.

In the case of `CCOC(C)c1ccc(-c2ccc3nc4c(n3n2)C(c2ccccc2OC(F)F)NCC4O)cc1` (racemic) [Example 35, (+/−)-cis-9-(2-(difluoromethoxy)phenyl)-2-(4-(1-ethoxyethyl)phenyl)-6,7,8,9-tetrahydropyrido[4′,3′:4,5]imidazo[1,2-b]pyridazin-6-ol], the IC50 was 1 to 10 µM.
